As usually defined, the EC50 is the concentration that produces a half-maximal response. Read a high EC50 as a need for much substance. The melting point is the temperature of the solid-liquid transition.

This is an account of results in patent US20060148858A1, “1, 2-Azole derivatives with hypoglycemic and hypolipidemic activity” (priority 2002, published 2006).

Read-outs that look alike come from different tables or passages of the source.

The target in data set [1] is T1, PPARγ-RXRα heterodimer (Homo sapiens, UniProt P37231).
T1 construct: expressed in transfected cells; host or cells: CHO-K1
T1 sequence (P37231 1-477 isoform P37231-2): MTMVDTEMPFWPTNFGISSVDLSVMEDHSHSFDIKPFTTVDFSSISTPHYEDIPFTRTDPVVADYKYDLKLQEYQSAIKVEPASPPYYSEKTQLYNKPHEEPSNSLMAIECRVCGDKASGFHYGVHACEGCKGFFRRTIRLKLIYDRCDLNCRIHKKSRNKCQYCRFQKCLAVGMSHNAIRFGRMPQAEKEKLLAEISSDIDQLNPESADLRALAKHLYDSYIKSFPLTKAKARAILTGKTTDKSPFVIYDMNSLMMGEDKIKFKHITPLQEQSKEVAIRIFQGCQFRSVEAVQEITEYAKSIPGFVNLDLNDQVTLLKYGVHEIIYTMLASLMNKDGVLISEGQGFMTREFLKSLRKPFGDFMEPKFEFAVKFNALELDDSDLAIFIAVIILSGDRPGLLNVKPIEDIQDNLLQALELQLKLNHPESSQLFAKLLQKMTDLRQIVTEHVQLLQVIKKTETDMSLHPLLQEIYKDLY
T1 sequence (P19793 1-462 partner): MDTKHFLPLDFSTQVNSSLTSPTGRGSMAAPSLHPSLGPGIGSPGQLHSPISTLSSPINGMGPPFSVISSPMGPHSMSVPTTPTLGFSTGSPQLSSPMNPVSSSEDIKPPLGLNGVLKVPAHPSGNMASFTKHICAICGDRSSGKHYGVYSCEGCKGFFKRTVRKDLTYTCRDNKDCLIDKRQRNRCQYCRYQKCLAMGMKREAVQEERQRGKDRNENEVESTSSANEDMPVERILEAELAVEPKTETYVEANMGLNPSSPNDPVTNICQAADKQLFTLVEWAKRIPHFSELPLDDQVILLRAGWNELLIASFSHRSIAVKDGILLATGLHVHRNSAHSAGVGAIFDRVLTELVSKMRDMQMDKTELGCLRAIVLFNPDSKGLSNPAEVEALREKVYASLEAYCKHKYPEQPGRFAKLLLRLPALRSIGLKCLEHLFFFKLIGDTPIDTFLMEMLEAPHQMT
As to the kind of experiment: PPARγ-RXRα heterodimer ligand activity, luciferase reporter in PPARγ:RXRα:4ERPP/CHO-K1 cells (Test Example 3). Format: cell-based. The conditions noted are these: 18-48 hours, concentration for 50% of the maximum fold induction. Summed up: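 Stable CHO-K1 line co-expressing hPPARγ/RXR with 4ERPP-TK luciferase reporter, 2×10^4 cells per well, treated 18-48 h at 37° C. in HAM F12 with 0.1% fatty acid-free BSA. Luciferase fold induction versus untreated taken as 1; EC50 is concentration giving 50% of maximal fold induction.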
Background: In a reporter assay the amount or activity of a reporter protein is the signal.

The test system of data set [2] is KKAY mice. As to the kind of experiment: Hypoglycemic and hypolipidemic actions in mice (Test Example 1). Format: in vivo. Conditions: Mus musculus, po, 96 h, 0.005% in powdery diet, four days, non-treated group taken as 100%. Summed up:
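KKAY mice (9 to 12 weeks old, 5 per group) were fed diet containing 0.005% test compound ad libitum for four days. Plasma glucose and triglycerides from orbital venous blood were measured enzymatically, reported as % decrease relative to untreated group (100%).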

Where [3] appears, read: rate of decrease in blood glucose level, read-out: Hypoglycemic action (%).
The mark [4] stands for this setting: rate of decrease in blood triglyceride level, read-out: Hypolipidemic action (%).

With `CC(C)c1nn(-c2ccc(C(F)(F)F)cn2)cc1CCCOc1cc(CCC(=O)O)n(-c2ccccc2)n1` [Example 24, 3-[3-(3-{3-isopropyl-1-[5-(trifluoromethyl)-2-pyridyl]-1H-pyrazol-4-yl}propoxy)-1-phenyl-1H-pyrazol-5-yl]propionic acid], the melting point lay within 139 to 140 °C. In data set [1], this compound gave an EC50 of 38 nM.

Regarding `CCOc1nn(-c2ccc(C(F)(F)F)cn2)cc1CCCOc1cccc(CC(=O)O)c1` [Example 30, [3-(3-{3-ethoxy-1-[5-(trifluoromethyl)-2-pyridyl]-1H-pyrazol-4-yl}propoxy)phenyl]acetic acid], the melting point fell in the range of 134 to 135 °C. For the same compound, in data set [2] (setting [3]), the inhibition in vivo at 0.005 % in diet came out at 35%. In addition, the inhibition in vivo at 0.005 % in diet in data set [2] (setting [4]) was 58%. The EC50 in data set [1] stood at 210 nM.

With `CCOc1nn(-c2ccc(C(F)(F)F)cn2)cc1CCCOc1ccccc1CC(=O)O` [Example 31, (2-(3-{3-ethoxy-1-[5-(trifluoromethyl)-2-pyridyl]-1H-pyrazol-4-yl}propoxy)phenyl]acetic acid], the melting point fell in the range of 83 to 84 °C. Besides, the inhibition in vivo at 0.005 % in diet in data set [2] (setting [3]) worked out at 50%. In data set [2] (setting [4]), the inhibition in vivo at 0.005 % in diet was 69%. This compound yielded an EC50 in data set [1] of 35 nM.

In turn, `CCOc1nn(-c2ccc(C(F)(F)F)cn2)cc1CCCOc1cc(CCC(=O)O)n(-c2ccccc2)n1` [Example 42, 3-[3-(3-{3-ethoxy-1-[5-(trifluoromethyl)-2-pyridyl]-1H-pyrazol-4-yl}propoxy)-1-phenyl-1H-pyrazol-5-yl]propionic acid] had a melting point of 121 to 122 °C. Also, the inhibition in vivo at 0.005 % in diet in data set [2] (setting [3]) was determined as 32%. The inhibition in vivo at 0.005 % in diet in data set [2] (setting [4]) came out at 19%. In data set [1], this compound registered an EC50 of 19 nM.

Take `CCCc1nn(-c2ccc(C(F)(F)F)cn2)cc1CCCOc1cc(CCC(=O)O)n(-c2ccccc2)n1` [Example 43, 3-[1-phenyl-3-(3-{3-propyl-1-[5-(trifluoromethyl)-2-pyridyl]-1H-pyrazol-4-yl}propoxy)-1H-pyrazol-5-yl]propionic acid]: the melting point lay in the range of 149 to 150 °C. The compound further gave an EC50 in data set [1] of 53 nM.

Compound `CCCc1nn(-c2ccc(C(F)(F)F)cn2)cc1CCCCOc1cc(CCC(=O)O)n(-c2ccccc2)n1` [Example 58, 3-[1-phenyl-3-(4-{3-propyl-1-[5-(trifluoromethyl)-2-pyridinyl]-1H-pyrazol-4-yl}butoxy)-1H-pyrazol-5-yl]propanoic acid] had a melting point of 123 to 124 °C. This compound had an EC50 in data set [1] of 43 nM.

On to `CCCc1nn(-c2ccc(C(F)(F)F)cn2)cc1CCCOc1ccc(CCC(=O)O)c(OCC)c1` [Example 98, 3-[2-ethoxy-4-(3-{3-propyl-1-[5-(trifluoromethyl)-2-pyridinyl]-1H-pyrazol-4-yl}propoxy)phenyl]propanoic acid], for which the melting point was in the range of 119 to 120 °C. This compound also gave an EC50 in data set [1] of 110 nM.

Take `CCOc1nn(-c2ccc(C(F)(F)F)cn2)cc1CCCCOc1cc(CCC(=O)O)n(-c2ccccc2)n1` [Example 104, 3-[3-(4-{3-ethoxy-1-[5-(trifluoromethyl)-2-pyridinyl]-1H-pyrazol-4-yl}butoxy)-1-phenyl-1H-pyrazol-5-yl]propanoic acid]: the melting point was 138 to 139 °C. In data set [1], this compound had an EC50 of 34 nM.

Turning to `CCOc1nn(-c2ccc(C(F)(F)F)cn2)cc1CCCOc1ccc(CCC(=O)O)c(OC(C)C)c1` [Example 116, 3-[4-(3-{3-ethoxy-1-[5-(trifluoromethyl)-2-pyridinyl]-1H-pyrazol-4-yl}propoxy)-2-isopropoxyphenyl]propanoic acid], the melting point was in the range of 104 to 105 °C. It took 82 nM to reach a half-maximal effect in data set [1] (EC50).

Compound `O=C(O)CCc1cc(OCCCc2cn(-c3ccc(C(F)(F)F)cn3)nc2-c2ccccc2)nn1-c1ccccc1` [Example 125, 3-[1-phenyl-3-(3-{3-phenyl-1-[5-(trifluoromethyl)-2-pyridyl]-1H-pyrazol-4-yl}propoxy)-1H-pyrazol-5-yl]propionic acid] showed a melting point of 175 to 176 °C. This compound returned an EC50 in data set [1] of 26 nM.

`CCOc1nn(-c2ccc(C(F)(F)F)cn2)cc1CCCCOc1ccccc1CC(=O)O` [Example 137, [2-(4-{3-ethoxy-1-[5-(trifluoromethyl)-2-pyridyl]-1H-pyrazol-4-yl}butoxy)phenyl]acetic acid]: the melting point lay within 109 to 110 °C. The compound further had an EC50 in data set [1] of 35 nM.

With `COc1cccc(CC(=O)O)c1OCCCc1cn(-c2ccc(C(F)(F)F)cn2)nc1C(C)C` [Example 181, [2-(3-{3-isopropyl-1-[5-(trifluoromethyl)-2-pyridyl]-1H-pyrazol-4-yl}propoxy)-3-methoxyphenyl]acetic acid], the melting point lay in the range of 142 to 143 °C. Besides, the inhibition in vivo at 0.005 % in diet in data set [2] (setting [3]) is 49%. For the same compound, the inhibition in vivo at 0.005 % in diet in data set [2] (setting [4]) is 49%. This compound returned an EC50 in data set [1] of 75 nM.

`O=C(O)CCc1cc(OCCCc2cn(-c3ccc(C(F)(F)F)cn3)nc2C2CCCCC2)nn1-c1ccccc1` [Example 189, 3-[3-(3-{3-cyclohexyl-1-[5-(trifluoromethyl)-2-pyridyl]-1H-pyrazol-4-yl}propoxy)-1-phenyl-1H-pyrazol-5-yl]propionic acid]: the melting point lay within 182 to 183 °C. In addition, the inhibition in vivo at 0.005 % in diet in data set [2] (setting [3]) came out at 50%. The inhibition in vivo at 0.005 % in diet in data set [2] (setting [4]) came to 38%. Also, a half-maximal response in data set [1] (EC50) required 14 nM.

Turning to `CCOc1ccc(CC(=O)O)cc1OCCCc1cn(-c2ccc(C(F)(F)F)cn2)nc1C1CCCCC1` [Example 201, [3-(3-{3-cyclohexyl-1-[5-(trifluoromethyl)-2-pyridyl]-1H-pyrazol-4-yl}propoxy)-4-ethoxyphenyl]acetic acid], the melting point lay within 134 to 135 °C. The compound further yielded an EC50 in data set [1] of 63 nM.

`CCC(CC)c1nn(-c2ccc(C(F)(F)F)cn2)cc1CCCOc1c(CC(=O)O)cccc1OC` [Example 212, [2-(3-{3-(1-ethylpropyl)-1-[5-(trifluoromethyl)-2-pyridyl]-1H-pyrazol-4-yl}propoxy)-3-methoxyphenyl]acetic acid] registered a melting point of 100 to 101 °C. The inhibition in vivo at 0.005 % in diet in data set [2] (setting [3]) was 52%. Further, in data set [2] (setting [4]), the inhibition in vivo at 0.005 % in diet is 55%. Moreover, the EC50 in data set [1] was 13 nM.

With `CCCc1nn(-c2ccc(C(F)(F)F)cn2)cc1CCCOc1c(Br)cccc1CC(=O)O` [Example 237, [3-bromo-2-(3-{3-propyl-1-[5-(trifluoromethyl)-2-pyridinyl]-1H-pyrazol-4-yl}propoxy)phenyl]acetic acid], the melting point lay within 145 to 146 °C. Moreover, in data set [1], the EC50 was 17 nM.

With `COc1ccc(CC(=O)O)cc1OCCCc1cn(-c2ccc(C(F)(F)F)cn2)nc1C1CCCCC1` [Example 304, [3-(3-{3-cyclohexyl-1-[5-(trifluoromethyl)-2-pyridinyl]-1H-pyrazol-4-yl}propoxy)-4-methoxyphenyl]acetic acid], the melting point was in the range of 117 to 118 °C. For the same compound, it took 40 nM to reach a half-maximal effect in data set [1] (EC50).

On to `Cc1cccc(CC(=O)O)c1OCCCc1cn(-c2ccc(C(F)(F)F)cn2)nc1C1CCCCC1` [Example 316, [2-(3-{3-cyclohexyl-1-[5-(trifluoromethyl)-2-pyridinyl]-1H-pyrazol-4-yl}propoxy)-3-methylphenyl]acetic acid], for which the melting point lay within 184 to 185 °C. Also, in data set [1], the midpoint of the response, the EC50, lay at 3.8 nM.

As to `CCCc1nn(-c2ccc(C(F)(F)F)cn2)cc1CCCOc1c(C)cccc1CC(=O)O` [Example 319, [3-methyl-2-(3-{3-propyl-1-[5-(trifluoromethyl)-2-pyridinyl]-1H-pyrazol-4-yl}propoxy)phenyl]acetic acid], the melting point was in the range of 134 to 135 °C. The EC50 in data set [1] was 26 nM.

`Cc1cccc(CC(=O)O)c1OCCCc1cn(-c2ccc(C(F)(F)F)nn2)nc1C(C)(C)C` [Example 367, [2-(3-{3-tert-butyl-1-[6-(trifluoromethyl)pyridazin-3-yl]-1H-pyrazol-4-yl}propoxy)-3-methylphenyl]acetic acid] registered a melting point of 96 to 97 °C. Moreover, a half-maximal response in data set [1] (EC50) required 41 nM.
